Assay results from patent publication US6133323A, “Process for enhancing immune response in animals using β-carotene as a dietary supplement” (priority 1998, dated 2000).
Like-named read-outs stand apart in the source and are kept apart here. Blank lines part the entries; values can stand above or below the compound they belong to.

What was measured:
[1] = cited from earlier work
[2] = test system: subcellular lymphocyte fractions; parameters: species or system female short hair Tabby cats; conditions: in vivo
Procedure: (§1) Mature female short hair Tabby cats (7 to 8 months of age; 1.5 to 2.0 kg body weight) were used for Examples 4-6and were fed a basal diet (The lams Co., Lewisburg, Ohio.) which met or exceeded the requirement for all essential nutrients. Animals were group-housed indoors in light- and temperature-controlled rooms.
(§2) This example studied the uptake of β-carotene by blood lymphocytes in cats. The cats (n=8/treatment) were fed 0, 5 or 10 mg of β-carotene daily for 14 days. Blood was sampled on days 7 and 14 with the aid of a blood collection vacutainer set (Becton Dickenson, Franklin Lakes, N.J.) in sedated animals (10 mg ketamine and 0.1 mg of acepromazine/kg body weight). Blood lymphocytes and neutrophils were separated by density gradient centrifugation. Cell numbers were enumerated. Lymphocytes were resuspended in PBS containing 3% sodium ascorbate as an antioxidant. An aliquot of the cell suspension was sonicated for 30 seconds to disrupt the cells. The lymphocyte homogenate was extracted for the HPLC analysis of β-carotene. Adequate numbers of neutrophils could not be obtained; therefore, no data are available in quantitating the uptake of β-carotene by circulating neutrophils.
A larger aliquot was used to prepare subcellular lymphocyte fractions. Lymphocytes were disrupted by sonication for 20 seconds in 5 volumes of 0.25 M sucrose. Sodium ascorbate was added as the antioxidant. The homogenate was centrifuged (600×g for 10 min at 4° C.) and the crude nuclear pellet separated from the supernatant. The postnuclear supernatant obtained earlier was centrifuged (7,300×g for 20 min at 4° C.) to separate the mitochondrial fraction. The postmitochondrial supernatant was centrifuged (102,000×g for 60 min at 4° C.) to separate the microsomal from the cytosolic fraction. Each subcellular fraction was analyzed for β-carotene content by HPLC.

CD4+ cells = experiment: Lymphocyte populations (CD4+ cells); type: in vivo, female Beagles (dogs); conditions: dog, 20 or 50 mg daily, wk 8
Procedure: (§3) The following parameters were assessed in all the animals or in the peripheral blood lymphocytes: (1) delayed-type hypersensitivity (DTH) against PHA (nonspecific immunity) and vaccine (specific immunity), (2) lymphocyte proliferation, (3) lymphocyte populations and (4) immunoglobulins (Ig).

in vivo [3] = conditions: dog, po
[4] = type: in vivo, female Beagles (dogs); conditions: dog, daily supplementation
Procedure: (§4) Female Beagles (4 to 5 mo old) were supplemented daily with 0, 25, 50 or 100 mg of β-carotene to study the role of dietary β-carotene in enhancing the cell-mediated and humoral immune systems of the dog. The following parameters were assessed in all the animals or in the peripheral blood lymphocytes: (1) delayed-type hypersensitivity (DTH) against PHA (nonspecific immunity) and vaccine (specific immunity), (2) lymphocyte proliferation, (3) lymphocyte populations and (4) immunoglobulins (Ig).

[5] = test system: peripheral blood lymphocytes; parameters: species or system female short hair Tabby cats; conditions: in vivo
Procedure: as §1, §2

in vivo [6] = experiment: in vivo; parameters: species or system female short hair Tabby cats
Procedure: as §1
In this Example, the cats (n=6/treatment) were dosed daily at 0800 hr for 6 consecutive days with 0, 1, 2, 5 or 10 mg β-carotene. Blood was sampled once daily on day 0 (immediately prior to the first dose) and subsequently at 12 hr after each dosing (days 1 through 6). This blood sampling time was chosen based on the results obtained in Example 5. Plasma was isolated and analyzed for concentrations of β-carotene.

in vivo [7] = experiment: in vivo; parameters: species or system female short hair Tabby cats; conditions: po
Procedure: as §1
To study the uptake of oral β-carotene in cats given a single dose of β-carotene orally, cats (n=6/treatment) were given once perorally 0, 10, 20 or 50 mg of β-carotene (10% cold water dissolvable; BASF Corp., Ludwigshafen, Germany). The appropriate dose of β-carotene was dissolved in 0.6 ml of water and fed orally by using a feeding syringe. […] These cats were fed once with 50 mg β-carotene and blood sampled at 0 (immediately prior to β-carotene feeding), 3, 6, 10, 16, 24, 30 and 36 hr.
The results from this example are illustrated in FIG. 14 and show peak concentrations of β-carotene generally occurring between 10 and 16 hr post-dosing. Subsequently, blood was sampled from the remaining cats at 0, 12, 24, 30, 36, 42, 48 and 72 hr after dosing. Plasma was similarly separated and analyzed.

[8] = test system: immunoglobulins (IgG, IgM, total IgG); experiment: Plasma immunoglobulins (Ig); type: in vivo, female Beagles (dogs); conditions: dog
Procedure: as §3

[9] = test system: subcellular fractions of blood lymphocytes; parameters: species or system female Beagle dogs; conditions: dog, in vivo
Procedure: (§5) All procedures were conducted under dim light. Duplicate aliquots of plasma, each leukocyte homogenate, and each leukocyte subcellular fraction were extracted with a 1:1 mixture of diethyl ether and petroleum ether in the presence of BHT. The ether phase was removed and dried under a stream of nitrogen.
(§6) This example was designed to study the uptake of β-carotene in dogs by blood lymphocytes. The dogs (n=8/treatment) were fed 0, 50 or 100 mg of β-carotene daily for 30 days. Blood was sampled from all dogs via the jugular vein on days 10, 20 and 30. Blood lymphocytes and neutrophils were separated by density gradient centrifugation. Cell numbers were enumerated. Lymphocytes and neutrophils were resuspended in PBS containing 3% sodium ascorbate as an antioxidant. An aliquot of the cell suspension was sonicated for 30 seconds to disrupt the cells. The leukocyte homogenates were extracted for HPLC analysis of β-carotene.
(§7) On day 30, a larger aliquot of blood was taken and leukocyte suspensions prepared as described above for subsequent subcellular fractionation. Cells were disrupted by sonication for 20 seconds in 5 volumes of 0.25 M sucrose. Sodium ascorbate was added as the antioxidant. The homogenate was centrifuged (600×g for 10 min at 4° C.) and the nuclear pellet separated from the supernatant. The postnuclear supernatant was centrifuged (17,300×g for 20 min at 4° C.) to separate the mitochondrial fraction. The postmitochondrial supernatant was centrifuged (102,000×g for 60 min at 4° C.) to separate the microsomal from the cytosolic fraction. Each subcellular fraction was analyzed for β-carotene content by HPLC.

[10] = test system: subcellular fractions of blood neutrophils; parameters: species or system female Beagle dogs; conditions: dog, in vivo
Procedure: as §5, §6, §7

IL-2 = IL-2 production; type: in vivo, female Beagles (dogs); conditions: dog, β-carotene feeding
[11] = pigs and rodents; cited from earlier work
[12] = Blood uptake of β-carotene in dogs after a single oral dose (plasma, HPLC); conditions: dog
DTH response to PHA = experiment: Delayed-type hypersensitivity (DTH) against PHA (nonspecific immunity); type: in vivo, female Beagles (dogs); conditions: dog, 50 mg β-carotene daily, 7 weeks
Procedure: as §4

lymphocyte blastogenesis = experiment: Mitogen-induced lymphocyte blastogenesis (lymphocyte proliferation); type: in vivo, female Beagles (dogs); conditions: dog, β-carotene feeding
Procedure: as §4

[13] = parameters: species or system female Beagle dogs; conditions: dog, in vivo
Procedure: (§8) Female Beagle dogs (18 to 19 months of age; 7 to 9 kg body weight) were used in Examples 1-3 and were fed a basal diet (The lams Co., Lewisburg, Ohio.) which met or exceeded the requirement for all essential nutrients. Animals were housed indoors in light--(14 hr light; 10 hr dark) and temperature-controlled rooms.
as §5
In this Example, the dogs (n=6/treatment) were fed daily at 0800 hr for 7 consecutive days with 0, 12.5, 25, 50 or 100 mg β-carotene. The β-carotene was top-dressed on the food and fed in the morning meal. Blood was sampled once daily on day 0 (immediately prior to the first dose) and subsequently at 6 hr after each dosing (days 1 through 7). […] Plasma was isolated and analyzed for concentrations of β-carotene.

CD8 cells = experiment: Lymphocyte populations (CD8 cells); type: in vivo, female Beagles (dogs); conditions: dog, 20 mg daily, weeks 2 and 4
Procedure: as §3

blood neutrophils = test system: blood neutrophils; parameters: species or system female Beagle dogs; conditions: dog, in vivo
Procedure: as §8, §5, §6

blood lymphocytes = test system: blood lymphocytes; parameters: species or system female Beagle dogs; conditions: dog, in vivo
Procedure: as §8, §5, §6

DTH response to vaccine = experiment: Delayed-type hypersensitivity (DTH) against vaccine (specific immunity); type: in vivo, female Beagles (dogs); conditions: dog, 20 or 50 mg β-carotene daily, 7 weeks
Procedure: as §3

[14] = dog, in vivo

Compound: carotene
carotene in the blood, liver and milk of dogs ([1]; dog, in vivo): trace amounts, if any

accumulation of β-carotene in all fractions, day 14 vs day 7 [2]: no additional accumulation
concentrations of β-carotene in lymphocyte fractions, 10 mg vs 5 mg [2]: did not have higher concentrations
influence of dose or length of supplementation on relative β-carotene profiles in lymphocyte fractions [2]: generally were not influenced
relative proportion of β-carotene in the microsomes of lymphocytes [2]: 20-35%
β-carotene uptake in the nuclei compared to unsupplemented controls [2]: significant
Tmax (in vivo [3]): 3 to 6 h
half-life (in vivo [3]; half-life of plasma β-carotene): ~3 h
accumulation of β-carotene in lymphocytes, 10 mg vs 5 mg [5]: did not have higher accumulation
day of maximal uptake of dietary β-carotene by lymphocytes [5]: ≤ 7 days
uptake of β-carotene by blood lymphocytes on day 14 [5]: no additional increases
β-carotene in peripheral blood lymphocytes on day 0 [5]: undetectable
increase in daily changes in plasma β-carotene, 10 mg vs other doses (in vivo [6]): steepest increase
plasma β-carotene after the last dose relative to after one dose (in vivo [6]): 1.5-2 fold
concentration at 12 h (in vivo [6]; cat, po): 192 ± 58 ng/mL
half-life of plasma β-carotene (in vivo [7]; cat): about 24 hr
half-life (in vivo [7]; cat, half-life of plasma β-carotene): 12 to 18 h
Tmax (in vivo [7]; cat, time of peak concentrations of plasma β-carotene): 12 h
Tmax (in vivo [7]; cat, time of peak concentrations of β-carotene (post-dosing)): 10 to 16 h
plasma β-carotene concentration, 50 mg vs other doses (in vivo [7]): highest (P<0.01)
share of total lymphocyte β-carotene in the cytosol [9]: 52-62%
share of total lymphocyte β-carotene in the microsomes [9]: 16-23%
share of total lymphocyte β-carotene in the mitochondria [9]: 14-17%
share of total lymphocyte β-carotene in the nuclei [9]: 6-8%
β-carotene in lymphocyte subcellular fractions of dogs compared with cats [9]: substantially lower
dose effect on β-carotene uptake by neutrophil subcellular fractions [10]: No significant dose effect
β-carotene in nuclei of blood neutrophils [10]: not detected
Tmax [12]: 6 h
increase in daily concentrations of plasma β-carotene, 100 mg vs other doses [13]: steepest increase
plasma β-carotene after the last dose relative to after the first dose [13]: 2.5-4 fold
neutrophil β-carotene concentrations on day 30 (blood neutrophils): no further increase
treatment difference in β-carotene concentrations in lymphocytes, 50 versus 100 mg (blood lymphocytes): no significant treatment difference
β-carotene in lymphocytes of dogs lower than that observed in cats (blood lymphocytes): 20-30 fold
β-carotene in peripheral blood lymphocytes on day 0 (blood lymphocytes): undetectable
plasma β-carotene of dogs lower than that observed in cats [14]: 10-16 fold
time of peak blood β-carotene, dogs compared with cats [14]: occurred earlier in dogs than in cats
half-life of plasma β-carotene ([14]; po): ~4 h
Compound: CC1=C(/C=C/C(C)=C/C=C/C(C)=C/C=C/C=C(C)/C=C/C=C(C)/C=C/C2=C(C)CCCC2(C)C)C(C)(C)CCC1 [β-carotene]
β-carotene in the liver and milk of dogs ([1]; earlier studies): only trace amounts
β-carotene in the circulating blood and organs of dogs ([1]; some studies): low to undetectable amounts
population of CD4+ cells compared to controls (CD4+ cells): elevated population
effect on plasma retinol [4]: did not influence
effect on plasma α-tocopherol [4]: did not influence
dose dependence of Ig increases ([8]; 0 to 20 mg): dose dependent
antibody response for both Ig at 20 mg ([8]; 20 mg daily): greatest antibody response
Ig response at the highest level (50 mg) ([8]; 50 mg daily): did not produce a further increase
concentrations of IgG, IgM and total IgG ([8]; as early as 1 wk after dietary supplementation): increased significantly
IL-2 production (IL-2): did not influence
concentrations of β-carotene [11]: very low concentrations
DTH response to PHA (DTH response to PHA): greatest response
mitogen-induced lymphocyte blastogenesis (lymphocyte blastogenesis): did not influence
population of CD8 cells (CD8 cells): elevated population
DTH response to vaccine (DTH response to vaccine): significantly higher DTH response
